Measurements taken from patent US20060052409A1, “Therapeutic or preventive agent for nausea/vomiting” (priority 2002, published 2006).

Key:
[1] = tested on: morphine-induced nausea and vomiting; assay: Morphine-induced nausea and vomiting in beagles; assay type: in vivo; conditions: male beagles; for Anti-emetic effect of test compounds: dose at which the test compounds inhibited nausea and vomiting due to morphine: test compound i.v. 15 minutes before morphine 0.5 mg/kg i.v., observed for ten minutes
Procedure: Male beagles were used for the experiment. Frequencies of nausea and vomiting were visually observed for ten minutes after the administration of morphine.
Morphine (0.5 mg/kg) was intravenously administered into the foreleg of male beagles. […] The test compounds were intravenously administered into the foreleg 15 minutes before the administration of morphine.

[2] = tested on: nausea and vomiting due to morphine; conditions: literature report; cited from earlier work
[3] = tested on: morphine-induced nausea and vomiting; assay: Morphine-induced nausea and vomiting in ferrets; assay type: in vivo; conditions: male ferrets; morphine 0.1-3 mg/kg s.c.; observed for one hour
Procedure: Male ferrets were used for the experiment. Frequencies of nausea and vomiting were visually observed from immediately after the administration of morphine to one hour after the administration.
Morphine (0.1-3 mg/kg) was subcutaneously administered to male ferrets. […] The inhibitory effects of NTI on nausea and vomiting due to morphine were then studied. NTI (5 mg/kg) was subcutaneously administered 30 minutes before the administration of morphine (0.6 mg/kg).

With `Oc1ccc2c3c1O[C@H]1c4nc5ccccc5cc4C[C@@]4(O)[C@@H](C2)N(CC2CC2)CCC314` [Compound 5, 17-(cyclopropylmethyl)-6,7-didehydro-4,5α-epoxy-3,14β-dihydroxy-6,7-2′,3′-quinolinomorphinan] the “Anti-emetic effect of test compounds: dose at which the test compounds inhibited nausea and vomiting due to morphine” value [1] was 1.0 mg/kg.
In the case of `Oc1ccc2c3c1O[C@H]1c4c(c5cc(F)cc6c5n4CCC6)C[C@@]4(O)[C@@H](C2)N(CC2CC2)CCC314` [Compound 3, 17-(cyclopropylmethyl)-6,7-didehydro-4,5α-epoxy-3,14β-dihydroxy-1′,7′-trimethylene-5′-fluoro-6,7-2′,3′-indolomorphinan], the “Anti-emetic effect of test compounds: dose at which the test compounds inhibited nausea and vomiting due to morphine” value [1] is reported as 1.0 mg/kg.
For `C=CCN(CC=C)[C@@H](Cc1ccc(O)cc1)C(=O)NCC(=O)NCCS[C@@H](Cc1ccccc1)C(=O)N[C@@H](CC(C)C)C(=O)O` [ICI-154129], the “Anti-emetic effect against nausea and vomiting due to morphine” value [2] is listed as “cannot inhibit vomiting due to morphine”.
In the case of `Cc1c2c(nc3ccccc13)[C@@H]1Oc3c(O)ccc4c3C13CCN(CC1CC1)[C@H](C4)[C@]3(O)C2` [Compound 6, 17-(cyclopropylmethyl)-6,7-didehydro-4,5α-epoxy-3,14β-dihydroxy-6,7-2′,3′-(4′-methylquinolino)morphinan], the “Anti-emetic effect of test compounds: dose at which the test compounds inhibited nausea and vomiting due to morphine” value [1] is reported as 3.0 mg/kg.
In the case of `CN1CC[C@]23c4c5ccc(O)c4O[C@H]2[C@@H](O)C=C[C@H]3[C@H]1C5` [Morphine, morphine, reference compound], the “Induction of nausea and vomiting” value ([1]; morphine 0.5 mg/kg i.v.) is reported as “remarkably induced within 5 minutes” and the “Induction of nausea and vomiting” value [3] is reported as “remarkably induced at lower doses”.
With `Cn1c2c(c3ccc4c(c31)CCCC4)C[C@@]1(O)[C@H]3Cc4ccc(O)c5c4C1(CCN3CC1CC1)[C@H]2O5` [Compound 4, 17-(cyclopropylmethyl)-6,7-didehydro-4,5α-epoxy-3,14β-dihydroxy-6′,7′-cyclohexeno-1′-methyl-6,7-2′,3′-indolomorphinan] the “Anti-emetic effect of test compounds: dose at which the test compounds inhibited nausea and vomiting due to morphine” value [1] was 3.0 mg/kg.
For `O=C1/C(=C/c2ccccc2)C[C@@]2(O)[C@H]3Cc4ccc(O)c5c4[C@@]2(CCN3CC2CC2)[C@H]1O5` [Compound 7, 7-benzylidene-17-(cyclopropylmethyl)-4,5α-epoxy-3,14β-dihydroxy-6-oxomorphinan], the “Anti-emetic effect of test compounds: dose at which the test compounds inhibited nausea and vomiting due to morphine” value [1] was 1.0 mg/kg.
For `C[S+]([O-])c1cccc2c3c([nH]c12)[C@@H]1Oc2c(O)ccc4c2C12CCN(CC1CC1)[C@H](C4)[C@]2(O)C3` (stereo partly drawn) [Compound 2, 17-(cyclopropylmethyl)-6,7-didehydro-4,5α-epoxy-3,14β-dihydroxy-7′-methylsulfinyl-6,7-2′,3′-indolomorphinan], the “Anti-emetic effect of test compounds: dose at which the test compounds inhibited nausea and vomiting due to morphine” value [1] was 1.0 mg/kg.
For `C=CCN1CC[C@]23c4c5ccc(O)c4O[C@H]2C(=O)CC[C@@]3(O)[C@H]1C5` [naloxone], the “Anti-emetic effect against nausea and vomiting due to morphine” value [2] is given as “shows anti-emetic effects”.
